Measured values reported in ChEMBL document CHEMBL1671762, “Tolerance of benznidazole in treatment of Chagas' disease in adults” (Antimicrob Agents Chemother, 2010).

What was measured:
Homo sapiens [1] = organism: Homo sapiens; experiment: Toxicity in human patient infected with Trypanosoma cruzi assessed as occurrence of agranulocytosis after 2nd week of treatment; assay type: organism-based; settings: in vivo
Homo sapiens [2] = experiment: Toxicity in human patient infected with Trypanosoma cruzi assessed as occurrence of Headache at 5 mg/kg/day for 60 days; assay type: organism-based; settings: in vivo, 1440 h
Homo sapiens [3] = experiment: Toxicity in human patient infected with Trypanosoma cruzi assessed as occurrence of Dermatological disorder at 5 mg/kg/day for 60 days; assay type: organism-based; settings: in vivo, 1440 h
Homo sapiens [4] = experiment: Toxicity in human patient infected with Trypanosoma cruzi assessed as occurrence of Urticaria at 5 mg/kg/day for 60 days; assay type: organism-based; settings: in vivo, 1440 h
Homo sapiens [5] = experiment: Toxicity in human patient infected with Trypanosoma cruzi assessed as occurrence of Petechial rash at 5 mg/kg/day for 60 days; assay type: organism-based; settings: in vivo, 1440 h
Homo sapiens [6] = experiment: Toxicity in human patient infected with Trypanosoma cruzi assessed as occurrence of Itching at 5 mg/kg/day for 60 days; assay type: organism-based; settings: in vivo, 1440 h
Homo sapiens [7] = experiment: Toxicity in human patient infected with Trypanosoma cruzi assessed as occurrence of Palmar-plantar rash at 5 mg/kg/day for 60 days; assay type: organism-based; settings: in vivo, 1440 h
Homo sapiens [8] = experiment: Toxicity in human patient infected with Trypanosoma cruzi assessed as occurrence of Edema at 5 mg/kg/day for 60 days; assay type: organism-based; settings: in vivo, 1440 h
Homo sapiens [9] = experiment: Toxicity in human patient infected with Trypanosoma cruzi assessed as occurrence of Dyshidrosis at 5 mg/kg/day for 60 days; assay type: organism-based; settings: in vivo, 1440 h
Homo sapiens [10] = experiment: Toxicity in human patient infected with Trypanosoma cruzi assessed as occurrence of Hyperpigmentation at 5 mg/kg/day for 60 days; assay type: organism-based; settings: in vivo, 1440 h
Homo sapiens [11] = experiment: Toxicity in human patient infected with Trypanosoma cruzi assessed as occurrence of Erythema nodosum at 5 mg/kg/day for 60 days; assay type: organism-based; settings: in vivo, 1440 h
Homo sapiens [12] = experiment: Toxicity in human patient infected with Trypanosoma cruzi assessed as occurrence of Mucositis at 5 mg/kg/day for 60 days; assay type: organism-based; settings: in vivo, 1440 h
Homo sapiens [13] = experiment: Toxicity in human patient infected with Trypanosoma cruzi assessed as occurrence of Anorexia at 5 mg/kg/day for 60 days; assay type: organism-based; settings: in vivo, 1440 h
Homo sapiens [14] = experiment: Toxicity in human patient infected with Trypanosoma cruzi assessed as occurrence of Weakness at 5 mg/kg/day for 60 days; assay type: organism-based; settings: in vivo, 1440 h
Homo sapiens [15] = experiment: Toxicity in human patient infected with Trypanosoma cruzi assessed as occurrence of Fever at 5 mg/kg/day for 60 days; assay type: organism-based; settings: in vivo, 1440 h
Homo sapiens [16] = experiment: Toxicity in human patient infected with Trypanosoma cruzi assessed as occurrence of Articular involvement at 5 mg/kg/day for 60 days; assay type: organism-based; settings: in vivo, 1440 h
Homo sapiens [17] = experiment: Toxicity in human patient infected with Trypanosoma cruzi assessed as occurrence of Arthromyalgia at 5 mg/kg/day for 60 days; assay type: organism-based; settings: in vivo, 1440 h
Homo sapiens [18] = experiment: Toxicity in human patient infected with Trypanosoma cruzi assessed as occurrence of Arthritis at 5 mg/kg/day for 60 days; assay type: organism-based; settings: in vivo, 1440 h
Homo sapiens [19] = experiment: Toxicity in human patient infected with Trypanosoma cruzi assessed as occurrence of Paresthesia at 5 mg/kg/day for 60 days; assay type: organism-based; settings: in vivo, 1440 h
Homo sapiens [20] = experiment: Toxicity in human patient infected with Trypanosoma cruzi assessed as occurrence of Gastrointestinal disorders at 5 mg/kg/day for 60 days; assay type: organism-based; settings: in vivo, 1440 h
Homo sapiens [21] = experiment: Toxicity in human patient infected with Trypanosoma cruzi assessed as occurrence of Epigastralgia at 5 mg/kg/day for 60 days; assay type: organism-based; settings: in vivo, 1440 h
Homo sapiens [22] = experiment: Toxicity in human patient infected with Trypanosoma cruzi assessed as occurrence of Nausea at 5 mg/kg/day for 60 days; assay type: organism-based; settings: in vivo, 1440 h
Homo sapiens [23] = experiment: Toxicity in human patient infected with Trypanosoma cruzi assessed as occurrence of Dysphagia at 5 mg/kg/day for 60 days; assay type: organism-based; settings: in vivo, 1440 h
Homo sapiens [24] = experiment: Toxicity in human patient infected with Trypanosoma cruzi assessed as occurrence of Abdominal bloating at 5 mg/kg/day for 60 days; assay type: organism-based, Abdomen; settings: in vivo, 1440 h
Homo sapiens [25] = experiment: Toxicity in human patient infected with Trypanosoma cruzi assessed as occurrence of Heartburn at 5 mg/kg/day for 60 days; assay type: organism-based; settings: in vivo, 1440 h
Homo sapiens [26] = experiment: Toxicity in human patient infected with Trypanosoma cruzi assessed as occurrence of Vomiting at 5 mg/kg/day for 60 days; assay type: organism-based; settings: in vivo, 1440 h
Homo sapiens [27] = experiment: Toxicity in human patient infected with Trypanosoma cruzi assessed as occurrence of Diarrhea at 5 mg/kg/day for 60 days; assay type: organism-based; settings: in vivo, 1440 h
Homo sapiens [28] = experiment: Toxicity in human patient infected with Trypanosoma cruzi assessed as occurrence of Aphthous stomatitis at 5 mg/kg/day for 60 days; assay type: organism-based; settings: in vivo, 1440 h
Homo sapiens [29] = experiment: Toxicity in human patient infected with Trypanosoma cruzi assessed as occurrence of Hearing impairment at 5 mg/kg/day for 60 days; assay type: organism-based; settings: in vivo, 1440 h
Homo sapiens [30] = experiment: Toxicity in human patient infected with Trypanosoma cruzi assessed as occurrence of cardiac disorders at 5 mg/kg/day for 60 days; assay type: organism-based, Heart; settings: in vivo, 1440 h
Homo sapiens [31] = experiment: Toxicity in human patient infected with Trypanosoma cruzi assessed as occurrence of dolichocolon at 5 mg/kg/day for 60 days; assay type: organism-based, Colon; settings: in vivo, 1440 h
Homo sapiens [32] = organism: Homo sapiens; experiment: Toxicity in human patient infected with Trypanosoma cruzi assessed as occurrence of hypersensitivity on day 7 to 10; assay type: organism-based; settings: in vivo
Homo sapiens [33] = organism: Homo sapiens; experiment: Toxicity in human patient infected with Trypanosoma cruzi assessed as occurrence of dermatitis with cutaneous eruptions on day 7 to 10; assay type: organism-based; settings: in vivo
Homo sapiens [34] = organism: Homo sapiens; experiment: Toxicity in human patient infected with Trypanosoma cruzi assessed as occurrence of myalgias; assay type: organism-based; settings: in vivo
Homo sapiens [35] = organism: Homo sapiens; experiment: Toxicity in human patient infected with Trypanosoma cruzi assessed as occurrence of arthralgias; assay type: organism-based; settings: in vivo
Homo sapiens [36] = organism: Homo sapiens; experiment: Toxicity in human patient infected with Trypanosoma cruzi assessed as occurrence of lymphadenopathy; assay type: organism-based; settings: in vivo
Homo sapiens [37] = organism: Homo sapiens; experiment: Toxicity in human patient infected with Trypanosoma cruzi assessed as occurrence of polyneuropathy on 4th week of treatment; assay type: organism-based; settings: in vivo
Homo sapiens [38] = organism: Homo sapiens; experiment: Toxicity in human patient infected with Trypanosoma cruzi assessed as occurrence of paresthesias on 4th week of treatment; assay type: organism-based; settings: in vivo
Homo sapiens [39] = organism: Homo sapiens; experiment: Toxicity in human patient infected with Trypanosoma cruzi assessed as occurrence of polyneuritis on 4th week of treatment; assay type: organism-based; settings: in vivo
Homo sapiens [40] = organism: Homo sapiens; experiment: Toxicity in human patient infected with Trypanosoma cruzi assessed as occurrence of thrombopenic purpura after 2nd week of treatment; assay type: organism-based; settings: in vivo

With `O=C(Cn1ccnc1[N+](=O)[O-])NCc1ccccc1` [BENZNIDAZOLE] as the molecule, how does the Activity (Homo sapiens [1]) read?
Its Activity is “Toxic”.

What about the Activity (Homo sapiens [2]) of the same molecule?
Its Activity is 56.2%.

What about the Activity (Homo sapiens [3]) of the same molecule?
The Activity was 50.5%.

What about the Activity (Homo sapiens [4]) of the same molecule?
Its Activity is 43.4%.

What about the Activity (Homo sapiens [5]) of the same molecule?
Its Activity is 35.8%.

And the Activity (Homo sapiens [6])?
The Activity was 13.2%.

What about the Activity (Homo sapiens [7]) of the same molecule?
Its Activity is “Toxic”.

And the Activity (Homo sapiens [8])?
The Activity was “Toxic”.

And the Activity (Homo sapiens [9])?
The Activity was “Toxic”.

And the Activity (Homo sapiens [10])?
Its Activity is “Toxic”.

And the Activity (Homo sapiens [11])?
Its Activity is “Toxic”.

What about the Activity (Homo sapiens [12]) of the same molecule?
Its Activity is “Toxic”.

And the Activity (Homo sapiens [13])?
Its Activity is 40%.

And the Activity (Homo sapiens [14])?
The Activity was 30%.

And the Activity (Homo sapiens [15])?
Its Activity is 11%.

What about the Activity (Homo sapiens [16]) of the same molecule?
Its Activity is 36.2%.

What about the Activity (Homo sapiens [17]) of the same molecule?
Its Activity is “Toxic”.

What about the Activity (Homo sapiens [18]) of the same molecule?
The Activity was “Toxic”.

And the Activity (Homo sapiens [19])?
Its Activity is 27.6%.

What about the Activity (Homo sapiens [20]) of the same molecule?
The Activity was 15%.

And the Activity (Homo sapiens [21])?
The Activity was “Toxic”.

And the Activity (Homo sapiens [22])?
Its Activity is “Toxic”.

And the Activity (Homo sapiens [23])?
The Activity was “Toxic”.

What about the Activity (Homo sapiens [24]) of the same molecule?
The Activity was “Toxic”.

And the Activity (Homo sapiens [25])?
Its Activity is “Toxic”.

And the Activity (Homo sapiens [26])?
Its Activity is “Toxic”.

What about the Activity (Homo sapiens [27]) of the same molecule?
Its Activity is “Toxic”.

What about the Activity (Homo sapiens [28]) of the same molecule?
The Activity was 1%.

And the Activity (Homo sapiens [29])?
The Activity was 1%.

And the Activity (Homo sapiens [30])?
The Activity was 12.4%.

And the Activity (Homo sapiens [31])?
The Activity was 1.9%.

What about the Activity (Homo sapiens [32]) of the same molecule?
The Activity was “Toxic”.

And the Activity (Homo sapiens [33])?
The Activity was “Toxic”.

And the Activity (Homo sapiens [34])?
The Activity was “Toxic”.

And the Activity (Homo sapiens [35])?
The Activity was “Toxic”.

And the Activity (Homo sapiens [36])?
The Activity was “Toxic”.

And the Activity (Homo sapiens [37])?
The Activity was “Toxic”.

What about the Activity (Homo sapiens [38]) of the same molecule?
Its Activity is “Toxic”.

And the Activity (Homo sapiens [39])?
The Activity was “Toxic”.

And the Activity (Homo sapiens [40])?
The Activity was “Toxic”.
